Measurements taken from patent publication EP0590919A1, “Therapeutic agents for parkinson's disease” (KYOWA HAKKO KOGYO CO., LTD., priority 1992, dated 1994).
Read-outs that look alike come from different tables or passages of the source.

Experiments:
A₁ receptor = target: T1, A₁ receptor (Cavia porcellus, UniProt P47745); experiment: Adenosine A₁ receptor binding test (³H-CHA binding); set-up: species or system guinea pig; conditions: for inhibition at 100 µM: 10⁻⁴M; for inhibition at 100 µM / inhibition at 10 µM: guinea pig cerebrum; for inhibition at 10 µM: 10⁻⁵M; for Ki: Cheng-Prusoff's equation
T1 construct: from tissue; host or cells: guinea pig cerebrum membrane preparation
T1 sequence (P47745 1-326): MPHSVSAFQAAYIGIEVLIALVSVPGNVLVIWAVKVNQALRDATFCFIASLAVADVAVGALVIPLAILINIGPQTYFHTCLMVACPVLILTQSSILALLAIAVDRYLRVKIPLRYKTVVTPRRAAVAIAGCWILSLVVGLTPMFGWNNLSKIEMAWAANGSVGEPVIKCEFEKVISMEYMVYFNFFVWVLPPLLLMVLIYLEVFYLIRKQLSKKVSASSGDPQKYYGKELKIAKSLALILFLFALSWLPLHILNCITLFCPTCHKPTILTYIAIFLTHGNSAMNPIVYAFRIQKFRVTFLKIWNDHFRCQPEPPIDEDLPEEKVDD
Procedure: Cerebrum of a guinea pig was suspended in ice-cooled 50 mM Tris hydroxymethyl aminomethane hydrochloride (Tris HCl) buffer (pH 7.7) by using Polytron homogenizer (manufactured by […] Co.). […] The suspension was centrifuged under the same conditions, and the final precipitate was suspended once again in 50 mM Tris HCl buffer to give a tissue concentration of 100 mg (wet weight)/ml. The tissue suspension was incubated at 37°C for 30 minutes in the presence of 0.02 unit/mg tissue of adenosine deaminase (manufactured by Sigma Co.). The tissue suspension was then centrifuged (50,000 x g, 10 minutes), and 50 mM Tris HCl buffer was added to the precipitate to adjust the concentration of tissue to 10 mg (wet weight)/ml. […] The mixture solution was allowed to stand at 25°C for 90 minutes and then rapidly filtered by suction through a glass fiber filter (GF/C manufactured by Whatman Co.). […] The radioactivity on the filter was determined with a liquid scintillation counter (manufactured by Packard Instrument Co.). […] The inhibition constant (Ki value) shown in the table was calculated by the Cheng-Prusoff's equation.

dd-strain male mice = experiment: Acute toxicity test (minimum lethal dose, oral); format: in vivo; conditions: oral administration, three mice per group, mortality seven days after administration
Procedure: Test compounds were orally administered to groups of dd-strain male mice weighing 20 ± 1 g, each group consisting of three mice. Seven days after the administration, minimum lethal dose (MLD) of each compound was determined by observing the mortality.

A₂ receptor = target: T2, A₂ receptor (Rattus norvegicus, UniProt P30543); experiment: Adenosine A₂ receptor binding test (³H-NECA binding); conditions: for inhibition at 0.1 µM / inhibition at 1 µM / inhibition at 10 µM / inhibition at 100 µM: read-out: Inhibition (%) A₂ Receptor; for Ratio (A₁/A₂): ratio of Ki values A₁/A₂
T2 construct: from tissue; host or cells: rat corpus striatum membrane preparation
Procedure: The similar procedure as in the above-described adenosine A₁ receptor binding test was repeated using rat corpus striatum to obtain the final precipitate of the tissue thereof. The precipitate was suspended in 50 mM Tris HCl buffer containing 10 mM magnesium chloride and 0.02 unit/mg tissue of adenosine deaminase (manufactured by Sigma Co.) to give a tissue concentration of 5 mg (wet weight)/ml.
The mixture solution was allowed to stand at 25°C for 120 minutes and then treated in the same manner as in the adenosine A₁ receptor binding test to determine the radioactivity bound to the A₂ receptors.
The inhibition rate of the test compound against the binding of A₂ receptor (³H-NECA binding) was calculated by the following equation: [formula] [Notes] • 1.

[1] = tested on: Haloperidol-Induced Catalepsy; experiment: Effect on haloperidol-induced catalepsy; format: in vivo, mice; conditions: for ED50: Mus musculus, 1 h, ten mice at each dose, effective = catalepsy score 3 or less, Probit analysis, oral, read-out: ED₅₀; for Number of the Animals Showing Remission: of five mice, catalepsy score not more than 4 points; for Number of the Animals Showing Remission / Remission Rate (%) / Total Score: 10 mg/kg orally; for Remission Rate (%): rate of decrease in total score based on control group; for Total Score: total catalepsy score of five mice (25 points at the full), haloperidol 1.0 mg/kg i.p.
Procedure: Haloperidol (Janssen Pharmaceutica) suspended in 0.3% CMC was intraperitoneally administered to each mouse at a dose of 1.0 mg/kg. Test compounds were suspended in 0.3% CMC or in injectable distilled water (Otsuka Pharmaceutical Co., Ltd.) containing Tween 80. L-DOPA (Kyowa Hakko Kogyo Co., Ltd.) and benserazide hydrochloride (Kyowa Hakko Kogyo Co., Ltd.) were suspended in 0.3% CMC. One hour after the haloperidol administration, the test compound suspensions and the control suspension [injectable distilled water (Otsuka Pharmaceutical Co., Ltd.) containing Tween 80] containing no test compound were orally administered to separate groups of the mice (0.1 ml per 10 g of body weight). One hour after the administration of the test compound, the forelimbs of each mouse and subsequently the hindlimbs of the same mouse were placed on a 4.5 cm-high, 1.0 cm-wide bar and catalepsy was estimated. […] The catalepsy score and the standard of judgment are shown below. […] The number of the animals showing remission against catalepsy is the number of the mice for which the catalepsy score was not more than 4 points. […] The ED₅₀ values were calculated by Probit analysis.

T2 sequence (P30543 whole entry): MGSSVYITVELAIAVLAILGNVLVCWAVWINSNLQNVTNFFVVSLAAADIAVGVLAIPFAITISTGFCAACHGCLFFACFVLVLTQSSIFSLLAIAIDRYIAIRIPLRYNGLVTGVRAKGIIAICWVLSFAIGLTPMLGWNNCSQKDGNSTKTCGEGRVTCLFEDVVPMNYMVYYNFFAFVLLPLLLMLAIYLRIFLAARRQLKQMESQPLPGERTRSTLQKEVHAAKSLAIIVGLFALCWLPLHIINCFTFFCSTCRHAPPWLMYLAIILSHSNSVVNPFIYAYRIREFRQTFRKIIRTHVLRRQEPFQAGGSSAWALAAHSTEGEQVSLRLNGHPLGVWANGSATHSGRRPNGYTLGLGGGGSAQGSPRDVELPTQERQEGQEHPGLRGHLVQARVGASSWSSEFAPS

Row | SMILES | inhibition at 100 µM (A₁ receptor) | inhibition at 10 µM (A₁ receptor) | MLD (dd-strain male mice) | inhibition at 0.1 µM (A₂ receptor) | inhibition at 1 µM (A₂ receptor) | inhibition at 10 µM (A₂ receptor) | inhibition at 100 µM (A₂ receptor) | Ki (A₂ receptor; ³H-NECA binding) | Ki (A₁ receptor) | Ratio (A₁/A₂) (A₂ receptor) | ED50 [1] | Number of the Animals Showing Remission [1] | Remission Rate (%) [1] | Total Score [1] | inhibition at 100 µM (A₂ receptor; 10⁻⁴M, ³H-NECA binding, rat corpus striatum) | inhibition at 10 µM (A₂ receptor; 10⁻⁵M, ³H-NECA binding, rat corpus striatum) | inhibition at 1 µM (A₂ receptor; 10⁻⁶M, ³H-NECA binding, rat corpus striatum) | inhibition at 0.1 µM (A₂ receptor; 10⁻⁷M, ³H-NECA binding, rat corpus striatum)
1 | CCn1c(=O)c2[nH]c(/C=C/c3ccc(OC)c(OC)c3)nc2n(CC)c1=O [Compound 1, (E)-8-(3,4-Dimethoxystyryl)-1,3-diethylxanthine] | 86% | 84% | > 300 mg/kg | 53% | 86% | 98% | 100% | 23 nM |  |  |  |  |  |  |  |  |  | 
2 | CCn1c(=O)c2c(nc(/C=C/c3cccc(OC)c3OC)n2C)n(CC)c1=O [Compound 4, (E)-8-(2,3-Dimethoxystyryl)-1,3-diethyl-7-methylxanthine] | 70% | 55% | > 300 mg/kg | 57% | 84% | 88% | 90% | 33 nM |  |  |  |  |  |  |  |  |  | 
3 | CCn1c(=O)c2[nH]c(/C=C/c3ccc(OC)c(OC)c3OC)nc2n(CC)c1=O [Compound 7, (E)-1,3-Diethyl-8-(2,3,4-trimethoxystyryl)xanthine] | 49% | 34% | > 300 mg/kg | 65% | 88% | 75% | 83% | 15 nM | > 10 µM | > 670 |  |  |  |  |  |  |  | 
4 | CCn1c(=O)c2[nH]c(/C=C/c3ccc(OC)c(C)c3C)nc2n(CC)c1=O [Compound 9, (E)-1,3-Diethyl-8-(4-methoxy-2,3-dimethylstyryl)xanthine] | 26% | 14% | > 300 mg/kg | 79% | 84% | 73% | 86% | 3.1 nM | > 100 µM | > 32,000 |  |  |  |  |  |  |  | 
5 | CCn1c(=O)c2[nH]c(/C=C/c3ccc(OC)c(C)c3OC)nc2n(CC)c1=O [Compound 13, (E)-8-(2,4-Dimethoxy-3-methylstyryl)-1,3-diethylxanthine] | 71% | 59% | > 300 mg/kg | 77% | 84% | 88% | 95% | 9.5 nM |  |  |  |  |  |  |  |  |  | 
6 | CCn1c(=O)c2[nH]c(/C=C/c3ccc4c(c3)OCO4)nc2n(CC)c1=O [Compound 15, (E)-1,3-Diethyl-8-(3,4-methylenedioxystyryl)xanthine] | 35% | 25% | > 300 mg/kg | 53% | 64% | 70% | 70% | 15 nM | > 100 µM |  |  |  |  |  |  |  |  | 
7 | CCn1c(=O)c2c(nc(/C=C/c3ccc4c(c3)OCO4)n2C)n(CC)c1=O [Compound 16, (E)-1,3-Diethyl-7-methyl-8-(3,4-methylenedioxystyryl)xanthine] | 72% | 53% | > 300 mg/kg | 80% | 96% | 88% | 93% | 6.1 nM |  |  | 0.76 mg/kg | 5 | 84% | 4 |  |  |  | 
8 | CCn1c(=O)c2[nH]c(/C=C/c3ccc4c(c3)OCCO4)nc2n(CC)c1=O [Compound 17, (E)-8-[2-(1,4-Benzodioxan-6-yl)vinyl]-1,3-diethylxanthine] | 31% | 23% | > 100 mg/kg | 70% | 69% | 80% | 80% | 6.3 nM | > 100 µM | > 16,000 |  |  |  |  |  |  |  | 
9 | CCn1c(=O)c2c(nc(/C=C/c3ccc4c(c3)OCCO4)n2C)n(CC)c1=O [Compound 18, (E)-8-[2-(1,4-Benzodioxan-6-yl)vinyl]-1,3-diethyl-7-methylxanthine] | 66% | 56% | > 300 mg/kg | 84% | 90% | 104% | 98% | 1.5 nM |  |  | 1.9 mg/kg | 5 | 84% | 4 |  |  |  | 
10 | COc1ccc(/C=C/c2nc3c([nH]2)c(=O)n(C)c(=O)n3C)c(OC)c1OC [Compound 19, (E)-8-(2,3,4-Trimethoxystyryl)theophylline] | 31% | 10% | > 300 mg/kg | 65% | 87% | 92% | 91% | 310 nM | > 100 µM | > 320 |  |  |  |  |  |  |  | 
11 | COc1ccc(/C=C/c2nc3c([nH]2)c(=O)n(C)c(=O)n3C)c(C)c1C [Compound 21, (E)-8-(4-Methoxy-2,3-dimethylstyryl)theophylline] | 40% | 36% | > 100 mg/kg | 56% | 68% | 83% | 79% | 22 nM | > 100 µM |  |  | 4 | 24% | 19 |  |  |  | 
12 | COc1ccc(/C=C/c2nc3c(c(=O)n(C)c(=O)n3C)n2C)c(C)c1C [Compound 22, (E)-8-(4-Methoxy-2,3-dimethylstyryl)caffeine] | 1% | 1% | > 100 mg/kg | 78% | 85% | 78% | 81% | 3 nM | > 100 µM | > 33,000 |  | 3 | 20% | 20 |  |  |  | 
13 | Cn1c(=O)c2[nH]c(/C=C/c3ccc4c(c3)OCO4)nc2n(C)c1=O [Compound 23, (E)-8-(3,4-Methylenedioxystyryl)theophylline] | 38% | 32% | > 300 mg/kg |  |  |  |  |  | > 100 µM |  |  |  |  |  | 81% | 90% | 60% | 38%
14 | Cn1c(=O)c2c(nc(/C=C/c3ccc4c(c3)OCO4)n2C)n(C)c1=O [Compound 24, (E)-8-(3,4-Methylenedioxystyryl)caffeine] | -25% | -4% | > 300 mg/kg | 62% | 57% | 75% | 85% | 26 nM | > 100 µM | > 3,800 |  |  |  |  |  |  |  | 
